From patent US20240383955A1, “MODIFIED ANTIMICROBIAL PEPTIDES” (priority 2021, published 2024)
≈ marks a conversion by molar mass, not a printed value. Bridge positions count the residues as written; N and C are the ends. Square brackets hold non-standard residues; d marks the D form. Ends that are not written are not given here. Peptide text beside a SMILES is read from it. Dab = NCC[C@H](N)C(=O)O

How the values were obtained:
B. cinerea [1] = test: Semi-in planta drop inoculation assay on detached leaves of N. benthamiana, gray mold symptoms; type: in vivo, B. cinerea on N. benthamiana; settings: 48 h; for effectiveness in reducing gray mold disease symptoms: peptide tested at 1.5 μM, 3 μM and 6 μM
Botrytis cinerea = settings: Table 18
B. cinerea [2] = test: In vitro antifungal activity (MIC) in SFM culture media, with or without added salts; settings: SFM + 2 mM CaCl2; Table 10

| Molecule | gray mold symptoms (B. cinerea [1]; peptide at 3 μM and 6 μM) | MIC (SFM + 2 mM CaCl2) (Botrytis cinerea) [µM] | MIC (SFM + 100 mM KCl) (Botrytis cinerea) [µM] | MIC (SFM + 100 mM NaCl) (Botrytis cinerea) [µM] | MIC SFM (Botrytis cinerea) [µM] | also measured |
| --- | --- | --- | --- | --- | --- | --- |
| CC[C@H](C)[C@H](NC(=O)[C@H](CCCNC(=N)N)NC(=O)[C@H](CS)NC(=O)[C@H](CCCNC(=N)N)NC(=O)CNC(=O)[C@@H](N)CO)C(=O)N[C@@H](CC(C)C)C(=O)N[C@@H](Cc1ccccc1)C(=O)N[C@@H](CCCNC(=N)N)C(=O)N[C@@H](CS)C(=O)N[C@@H](Cc1ccccc1)C(=O)N[C@@H](CS)C(=O)N[C@H](C(=O)N[C@@H](CCCCN)C(=O)N[C@@H](CC(N)=O)C(=O)N[C@@H](CS)C(N)=O)[C@@H](C)O [GMA1C_V1] (H-SGRCRILFRCFCTKNC-NH2; N-terminus assumed) | – | – | – | – | – | gray mold symptoms (B. cinerea [1]): failed to reduce disease symptoms |
| CC[C@H](C)[C@@H]1NC(=O)[C@H](CCCNC(=N)N)NC(=O)[C@@H](NC(=O)[C@H](CCCNC(=N)N)NC(=O)CNC(=O)[C@@H](N)CO)CSSC[C@@H](C(N)=O)NC(=O)[C@H](CC(N)=O)NC(=O)[C@H](CCCCN)NC(=O)[C@H]([C@@H](C)O)NC(=O)[C@H](Cc2c[nH]c3ccccc23)NC(=O)[C@H](Cc2ccccc2)NC(=O)[C@H](Cc2c[nH]c3ccccc23)NC(=O)[C@H](CCCNC(=N)N)NC(=O)[C@H](Cc2ccccc2)NC(=O)[C@H](CC(C)C)NC1=O [GMA1C_V2] (H-SGRCRILFRWFWTKNC-NH2; disulfide 4-16) | completely abrogated gray mold symptoms | 3 | >12 | 3 | 1.5 to 3 | reducing the symptoms of gray mold, comparison of peptides (B. cinerea [1]; peptide at 1.5 μM): more effective than GMA1C_V1 |
| CC[C@H](C)[C@@H]1NC(=O)[C@H](CCCNC(=N)N)NC(=O)[C@@H](NC(=O)[C@H](CCCNC(=N)N)NC(=O)CNC(=O)[C@@H](N)CO)CSSC[C@@H](C(N)=O)NC(=O)[C@H](CC(N)=O)NC(=O)[C@H](CCCCN)NC(=O)[C@H]([C@@H](C)O)NC(=O)[C@H](Cc2ccccc2)NC(=O)[C@H](Cc2ccc(O)cc2)NC(=O)[C@H](Cc2c[nH]c3ccccc23)NC(=O)[C@H](CCCNC(=N)N)NC(=O)[C@H](Cc2ccccc2)NC(=O)[C@H](CC(C)C)NC1=O [GMA1C_V3] (H-SGRCRILFRWYFTKNC-NH2; disulfide 4-16) | – | 6 | >12 | 3 | 1.5 (≈ 3.07 µg/mL) | – |
| C[C@@H](O)[C@H](NC(=O)[C@H](CS)NC(=O)[C@H](Cc1ccccc1)NC(=O)[C@H](CS)NC(=O)[C@H](CCCNC(=N)N)NC(=O)[C@H](CCCNC(=N)N)NC(=O)[C@H](CCCNC(=N)N)NC(=O)[C@H](Cc1ccccc1)NC(=O)CNC(=O)[C@H](CCCNC(=N)N)NC(=O)[C@H](CS)NC(=O)[C@H](CCCNC(=N)N)NC(=O)CN)C(=O)N[C@H](C(=O)N[C@@H](Cc1c[nH]cn1)C(=O)N[C@@H](CS)C(=O)O)[C@@H](C)O [GMA4AC] (H-GRCRGFRRRCFCTTHC-OH; N-terminus and C-terminus assumed) | – | – | – | – | – | MIC Fusarium graminearum (F. graminearum): 6 µM (≈ 11.8 µg/mL) |
| NCC[C@H](NC(=O)CNC(=O)[C@@H](N)Cc1ccccc1)C(=O)N[C@@H](CS)C(=O)N[C@@H](CCN)C(=O)NCC(=O)N[C@@H](Cc1ccccc1)C(=O)N[C@@H](CCN)C(=O)N[C@@H](CCN)C(=O)N[C@@H](CCN)C(=O)N[C@@H](CS)C(=O)N[C@@H](Cc1ccccc1)C(=O)N[C@@H](CS)C(=O)N[C@@H](Cc1c[nH]c2ccccc12)C(=O)N[C@@H](CCN)C(=O)N[C@@H](Cc1c[nH]c2ccccc12)C(=O)N[C@@H](CS)C(=O)O [GMA4C_V5, FG(Dab)C(Dab)GF(Dab)(Dab)(Dab)CFCW(Dab)WC] (H-FG[Dab]C[Dab]GF[Dab][Dab][Dab]CFCW[Dab]WC-OH; N-terminus assumed) | – | – | – | – | – | SFM + 2 mM CaCl2 MIC (B. cinerea [2]): >6 (very μM |
| CC[C@H](C)[C@@H]1NC(=O)[C@H](CCCNC(=N)N)NC(=O)[C@H]([C@@H](C)O)NC(=O)[C@H](Cc2ccccc2)NC(=O)[C@H](Cc2c[nH]c3ccccc23)NC(=O)[C@H](Cc2ccccc2)NC(=O)[C@H](CCCNC(=N)N)NC(=O)[C@H](CCCNC(=N)N)NC(=O)[C@H](CC(C)C)NC(=O)[C@H](Cc2ccccc2)NC(=O)CNC(=O)[C@H](CCCCN)NC(=O)[C@@H](NC(=O)[C@H](CCCNC(=N)N)NC(=O)CNC(=O)CN)CSSC[C@@H](C(N)=O)NC1=O [GMA4C_V9] (H-GGRCKGFLRRFWFTRIC-NH2; disulfide 4-17) | – | 12 | 6 to 12 | 3 | 3 (≈ 6.3 µg/mL) | effectiveness in reducing gray mold disease symptoms (B. cinerea [1]): effective in reducing gray mold disease symptoms |
| CC[C@H](C)[C@@H]1NC(=O)[C@H](CCCNC(=N)N)NC(=O)[C@H]([C@@H](C)O)NC(=O)[C@H](Cc2c[nH]c3ccccc23)NC(=O)[C@H](Cc2ccc(O)cc2)NC(=O)[C@H](Cc2c[nH]c3ccccc23)NC(=O)[C@H](CCCNC(=N)N)NC(=O)[C@H](CCCNC(=N)N)NC(=O)[C@H](CCCNC(=N)N)NC(=O)[C@H](Cc2ccccc2)NC(=O)CNC(=O)[C@H](CCCCN)NC(=O)[C@@H](NC(=O)[C@H](CCCNC(=N)N)NC(=O)CNC(=O)CN)CSSC[C@@H](C(N)=O)NC1=O [GMA4C_V10] (H-GGRCKGFRRRWYWTRIC-NH2; disulfide 4-17; N-terminus assumed) | – | 3 | 3 to 6 | 3 | 3 (≈ 6.6 µg/mL) | reducing the symptoms of gray mold, comparison of peptides (B. cinerea [1]; peptide at 1.5 μM and 3 μM): more effective in reducing the symptoms of gray mold than GMA4C_V9; gray mold symptoms (B. cinerea [1]; peptide at 6 μM): completely abrogates gray mold symptoms; effectiveness in reducing gray mold disease symptoms (B. cinerea [1]): effective in reducing gray mold disease symptoms |
| C[C@H](NC(=O)CN)C(=O)N[C@H]1CSSC[C@@H](C(N)=O)NC(=O)[C@H](CCCCN)NC(=O)[C@H](CCCCN)NC(=O)[C@H](Cc2ccc(O)cc2)NC(=O)[C@H](Cc2c[nH]c3ccccc23)NC(=O)[C@H](Cc2ccccc2)NC(=O)[C@H](Cc2c[nH]c3ccccc23)NC(=O)[C@H](C)NC(=O)[C@H](Cc2ccccc2)NC(=O)CNC(=O)[C@H](Cc2ccccc2)NC(=O)CNC(=O)[C@H](CCC(N)=O)NC(=O)[C@H](CCCNC(=N)N)NC(=O)[C@H](Cc2c[nH]cn2)NC1=O [GMA5CA_V3] (H-GACHRQGFGFAWFWYKKC-NH2; disulfide 3-18) | – | >12 | >12 | >12 | 3 (≈ 6.57 µg/mL) | – |
| C[C@H](NC(=O)CN)C(=O)N[C@H]1CSSC[C@@H](C(N)=O)NC(=O)[C@H](CCCCN)NC(=O)[C@H](CCCCN)NC(=O)[C@H](Cc2ccc(O)cc2)NC(=O)[C@H](Cc2ccccc2)NC(=O)[C@H](Cc2ccccc2)NC(=O)[C@H](Cc2ccccc2)NC(=O)[C@H](C)NC(=O)[C@H](Cc2ccccc2)NC(=O)CNC(=O)[C@H](Cc2ccccc2)NC(=O)CNC(=O)[C@H](CCC(N)=O)NC(=O)[C@H](CCCNC(=N)N)NC(=O)[C@H](Cc2c[nH]cn2)NC1=O [GMA5CA_V4] (H-GACHRQGFGFAFFFYKKC-NH2; disulfide 3-18) | – | >12 | >12 | >12 | 3 (≈ 6.33 µg/mL) | – |
| CC(C)C[C@@H]1NC(=O)[C@@H](NC(=O)[C@H](C)NC(=O)CN)CSSC[C@@H](C(=O)N[C@@H](Cc2ccc(O)cc2)C(N)=O)NC(=O)[C@H](Cc2c[nH]cn2)NC(=O)[C@H](CCCNC(=N)N)NC(=O)[C@H](Cc2ccc(O)cc2)NC(=O)[C@H](Cc2ccc(O)cc2)NC(=O)[C@H](Cc2c[nH]c3ccccc23)NC(=O)[C@H](Cc2ccccc2)NC(=O)[C@H](Cc2c[nH]c3ccccc23)NC(=O)CNC(=O)[C@H](Cc2ccc(O)cc2)NC(=O)[C@H](Cc2c[nH]cn2)NC(=O)[C@H](CCCCN)NC(=O)[C@H](CO)NC(=O)[C@H](Cc2c[nH]cn2)NC(=O)[C@H](CCCNC(=N)N)NC(=O)[C@H](CC(N)=O)NC(=O)[C@H](CCCCN)NC1=O [GMAOe1C_V3] (H-GACLKNRHSKHYGWFWYYRHCY-NH2; disulfide 3-21) | completely abrogated gray mold symptoms | 3 to 6 | 6 to 12 | 2 to 3 | 1.5 (≈ 4.31 µg/mL) | reducing the symptoms of gray mold, comparison of peptides (B. cinerea [1]; peptide at 1.5 μM): more effective than GMAOe1C_V4 or GMAOe1C_WT |
| CC(C)C[C@@H]1NC(=O)[C@@H](NC(=O)[C@H](C)NC(=O)CN)CSSC[C@@H](C(=O)N[C@@H](Cc2ccc(O)cc2)C(N)=O)NC(=O)[C@H](Cc2c[nH]cn2)NC(=O)[C@H](CCCNC(=N)N)NC(=O)[C@H](Cc2ccc(O)cc2)NC(=O)[C@H](Cc2ccc(O)cc2)NC(=O)[C@H](Cc2c[nH]c3ccccc23)NC(=O)[C@H](Cc2ccccc2)NC(=O)[C@H](Cc2ccccc2)NC(=O)CNC(=O)[C@H](Cc2ccc(O)cc2)NC(=O)[C@H](Cc2c[nH]cn2)NC(=O)[C@H](CCCCN)NC(=O)[C@H](CO)NC(=O)[C@H](Cc2c[nH]cn2)NC(=O)[C@H](CCCNC(=N)N)NC(=O)[C@H](CC(N)=O)NC(=O)[C@H](CCCCN)NC1=O [GMAOe1C_V4] (H-GACLKNRHSKHYGFFWYYRHCY-NH2; disulfide 3-21) | completely abrogated gray mold symptoms | 6 to 12 | 6 to 12 | 6 | 1.5 (≈ 4.25 µg/mL) | – |
| CC(C)C[C@H](NC(=O)[C@H](CS)NC(=O)[C@H](C)NC(=O)CN)C(=O)N[C@@H](CCCCN)C(=O)N[C@@H](CC(N)=O)C(=O)N[C@@H](CCCNC(=N)N)C(=O)N[C@@H](Cc1c[nH]cn1)C(=O)N[C@@H](CO)C(=O)N[C@@H](CCCCN)C(=O)N[C@@H](Cc1c[nH]cn1)C(=O)N[C@@H](Cc1ccc(O)cc1)C(=O)NCC(=O)N[C@@H](CS)C(=O)N[C@@H](Cc1ccc(O)cc1)C(=O)N[C@@H](CS)C(=O)N[C@@H](Cc1ccc(O)cc1)C(=O)N[C@@H](Cc1ccc(O)cc1)C(=O)N[C@@H](CCCNC(=N)N)C(=O)N[C@@H](Cc1c[nH]cn1)C(=O)N[C@@H](CS)C(=O)N[C@@H](Cc1ccc(O)cc1)C(N)=O [GMAOe1C_WT, reference compound] (H-GACLKNRHSKHYGCYCYYRHCY-NH2; N-terminus assumed) | – | – | – | – | – | effectiveness in reducing gray mold disease symptoms (B. cinerea [1]): only effective at 6 μM |
| GACLKNRHSKHYGWFWYYRHCY-NH2 (disulfide 3-21 (inferred)) [GMAOe1C_V2] | completely abrogated gray mold symptoms | – | – | – | – | – |
